Several values for one entry are separate records, joined by “and”; a condition that tells them apart may be missing. Equal values may be shown once.
Tested on: 188146-221-R-J1-PDC complex spheroid viability
Assay: Anticancer human tumor 188146-221-R-J1-PDC patient-derived colon adenocarcinoma cell line growth inhibition [POLQ]
Details: for viability, T/C: stronger effect = lower value
Description: Multicellular complex tumor spheroid response to Polymerase (POL) inhibitors (novobiocin, ART-558, RP6685) in combination with a variety of drugs and investigational agents in selected tumor cell lines
The POL inhibitors (novobiocin, ART-558, and RP6685) were evaluated both individually and in combination with standard of care and investigational anticancer small molecules within a complex spheroid model of solid tumors. . Complex spheroids include a stromal component modeled by human endothelial cells (HUVEC) and fibroblasts modeled by human mesenchymal stem cells (MSCs). The concentration ranges selected for each drug and investigational agent were based upon clinically achievable concentrations if the clinical Cmax of the agent was known.
Compounds. The drugs and investigational agents: novobiocin (NSC847541), ART-558 (NSC835418), RP-6685 (NSC848927), peposertib (NSC802822), ceralasertib (NSC780249), elimusertib (NSC800525), camonsertib (NSC841442), AZD-1390 (NSC803789), olaparib (NSC753686), talazoparib (NSC767125), rucaparib (NSC756644), sotorasib (NSC818433), MRTX-1133 (NSC836407), SN-38 (NSC673596), topotecan (NSC609699), epotoside (NSC141540), doxorubicin (NSC123127), gemcitabine (NSC613327), 5-fluorouracil (NSC19893), paclitaxel (NSC125973), vemurafenib (NSC761431), MSA-2 (NSC828583), SN-011 (NSC837082), adavosertib (NSC754352), prexasertib (NSC758257), carboplatin (NSC241240) and oxaliplatin (NSC266046), were obtained from the National Cancer Institute (NCI) Developmental Therapeutics Program Chemical Repository (21). The FDA-approved anticancer drug set is available from the Developmental Therapeutics Program at https://dtp.cancer.gov/organization/dscb/obtaining/. […] The stock solutions were prepared in dimethyl sulfoxide (DMSO, Sigma-Aldrich, St. Louis, MO, cat. D2650), except for the platinum compounds which were prepared in saline (Quality Biological, Gaithersburg, MD, cat. 114-055-101), at 800-fold the tested concentration and stored at -70 degrees C prior to their use. All drugs and investigational agents were tested over a range starting from a high concentration at or near the clinical Cmax and decreasing in half-log increments. If the clinical Cmax for an agent had not been determined, the highest concentration tested was 10 microM, except for SN-38, which was tested at a high concentration of 1 microM.
Cell Culture. All cells were maintained in an incubator at 37 degrees C and 5% CO2 with 95% humidity. The PDC lines were cultured according to standard operating procedures established by the NCI PDMR (https://pdmr.cancer.gov). Table 3 of the manuscript, lists the cell lines along with the number of the three cell types plated to form the mct-spheroids and media for tumor cell growth. After thawing, all PDC lines, except 997537-175-T-J1-PDC and 415267-285-R-J2-PDC, were cultured in Matrigel-coated flasks prepared with a working solution of 1X Ham's F-12 nutrient mix, without supplementation (Thermo Fisher Scientific, cat. 11765054), 100 U/mL penicillin-streptomycin (Thermo Fisher Scientific, cat. 15140122), and 2.5% Matrigel (Corning Inc., Corning, NY, cat. 354248) for the first three passages. The two PDC lines 997537-175-T-J1-PDC and 415267-285-R-J2-PDC were cultured on uncoated flasks. The 857933-349-R-J2-PDC line was cultured in 6C/Colon 1B media containing advanced DMEM/F-12 (Thermo Fisher Scientific, cat. 12634028), 10 mM HEPES (Thermo Fisher Scientific, cat. 15630080), 1X GlutaMAX supplement (Thermo Fisher Scientific, cat. 35050061), 0.1 mg/mL primocin (InvivoGen, San Diego, CA, cat. ant-pm-2), 10% defined fetal bovine serum, heat inactivated (HyClone Laboratories Inc., Logan, UT, cat. SH30070.03HI), 50% L-WRN conditioned media (ATCC, cat. CRL-3276), 1.25 mM N-Acetyl-L-cysteine (Sigma-Aldrich, cat. A9165), 10 mM nicotinamide (Sigma-Aldrich, cat. N0636), 1X B-27 supplement (Thermo Fisher Scientific, cat. 17504044), 1X N-2 supplement (Thermo Fisher Scientific, cat. […]
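Note: spheroids exposed to compounds for seven days.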
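Throughout, for viability, T/C: 100% = DMSO vehicle control viability.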

COc1ccc([C@@H](O)c2cc(-c3ncnc4cc(N5CCOCC5)ccc34)c(F)cc2Cl)nn1
viability, T/C (compound 0.0316 µM): 102% and 91.7% and 100%
viability, T/C (compound 0.1 µM): 101% and 92.3% and 96.1%
viability, T/C (compound 0.316 µM): 90.7% and 97.8% and 96.1%
viability, T/C (compound 1 µM): 90.2% and 101% and 91.3%
viability, T/C (compound 3.16 µM): 68.4% and 78.3% and 67.7%
viability, T/C (compound 10 µM): 32.3% and 39.1% and 29.9%
IC50 (curve of compound): 5750 nM and 7260 nM and 5430 nM

CC1COCCN1c1cc(-c2ccnn2C)c2ccnc(-c3ccn[nH]3)c2n1 (stereo not given) + COC1C(OC(N)=O)C(O)C(Oc2ccc3c(O)c(NC(=O)c4ccc(O)c(CC=C(C)C)c4)c(=O)oc3c2C)OC1(C)C
IC50 (curve of first compound, second compound 0.0316 µM): 207 nM
IC50 (curve of first compound, second compound 0.1 µM): 175 nM
IC50 (curve of first compound, second compound 0.316 µM): 193 nM
IC50 (curve of first compound, second compound 1 µM): 252 nM
IC50 (curve of first compound, second compound 3.16 µM): 204 nM
IC50 (curve of first compound, second compound 10 µM): 159 nM
viability, T/C (second compound 0.0316 µM, first compound 0.0316 µM): 81.5%
viability, T/C (second compound 0.0316 µM, first compound 0.1 µM): 67.3%
viability, T/C (second compound 0.0316 µM, first compound 0.316 µM): 39.3%
viability, T/C (second compound 0.0316 µM, first compound 1 µM): 23.3%
viability, T/C (second compound 0.0316 µM, first compound 3.16 µM): 16.3%
viability, T/C (second compound 0.0316 µM, first compound 10 µM): 14%
viability, T/C (second compound 0.1 µM, first compound 0.0316 µM): 94.2%
viability, T/C (second compound 0.1 µM, first compound 0.1 µM): 57.8%
viability, T/C (second compound 0.1 µM, first compound 0.316 µM): 44.5%
viability, T/C (second compound 0.1 µM, first compound 1 µM): 21.3%
viability, T/C (second compound 0.1 µM, first compound 3.16 µM): 18.1%
viability, T/C (second compound 0.1 µM, first compound 10 µM): 14.1%
viability, T/C (second compound 0.316 µM, first compound 0.0316 µM): 78.2%
viability, T/C (second compound 0.316 µM, first compound 0.1 µM): 66.3%
viability, T/C (second compound 0.316 µM, first compound 0.316 µM): 37.2%
viability, T/C (second compound 0.316 µM, first compound 1 µM): 22.4%
viability, T/C (second compound 0.316 µM, first compound 3.16 µM): 17.2%
viability, T/C (second compound 0.316 µM, first compound 10 µM): 13.3%
viability, T/C (second compound 1 µM, first compound 0.0316 µM): 83.3%
viability, T/C (second compound 1 µM, first compound 0.1 µM): 74.2%
viability, T/C (second compound 1 µM, first compound 0.316 µM): 43.3%
viability, T/C (second compound 1 µM, first compound 1 µM): 22.9%
viability, T/C (second compound 1 µM, first compound 3.16 µM): 16.9%
viability, T/C (second compound 1 µM, first compound 10 µM): 13.2%
viability, T/C (second compound 3.16 µM, first compound 0.0316 µM): 85.5%
viability, T/C (second compound 3.16 µM, first compound 0.1 µM): 61.6%
viability, T/C (second compound 3.16 µM, first compound 0.316 µM): 46.2%
viability, T/C (second compound 3.16 µM, first compound 1 µM): 19.4%
viability, T/C (second compound 3.16 µM, first compound 3.16 µM): 18.3%
viability, T/C (second compound 3.16 µM, first compound 10 µM): 14.1%
viability, T/C (second compound 10 µM, first compound 0.0316 µM): 79.9%
viability, T/C (second compound 10 µM, first compound 0.1 µM): 54.5%
viability, T/C (second compound 10 µM, first compound 0.316 µM): 44.6%
viability, T/C (second compound 10 µM, first compound 1 µM): 19.9%
viability, T/C (second compound 10 µM, first compound 3.16 µM): 16.7%
viability, T/C (second compound 10 µM, first compound 10 µM): 17%

COC1C(OC(N)=O)C(O)C(Oc2ccc3c(O)c(NC(=O)c4ccc(O)c(CC=C(C)C)c4)c(=O)oc3c2C)OC1(C)C (stereo not given)
viability, T/C (compound 0.0316 µM): 103% [middle of 12 runs]
viability, T/C (compound 0.316 µM): 102% [middle of 13 runs]
viability, T/C (compound 1 µM): 105% [middle of 13 runs]
viability, T/C (compound 3.16 µM): 107% [middle of 13 runs]
viability, T/C (compound 10 µM): 108% [middle of 13 runs]
IC50 (compound alone, run of 10/31/2023): > 10000 nM

— PubChem BioAssay AID1963851 (Molecular Pharmacology Branch, DTP, NCI, 2024)
